# Biological target: human factor IXa (Homo sapiens (Human), UniProt P00740)
# Experiment: Determination of Inhibitory Activity Against Factor IXa
# Assay type: biochemical
# Settings: Factor IXa enzyme assay human; read-out: FIXa IC50
# Protocol: Inhibitory activity against factor IXa was tested using the substrate SPECTROFLUOR FIXa (american diagnostica inc.; 500 West Avenue, Stamford, Conn. 06902 USA; Pr. No. 299F) and human factor IXa (american diagnostica inc.; Pr. No. 449b). Test substances were dissolved in buffer A (50 mM α,α,α-tris(hydroxymethyl) methylamine (Tris), 100 mM NaCl, 5 mM CaCl2, 15% (v/v) ethylene glycol, pH 8.0) were mixed with factor IXa (0.1 μg/ml final concentration). The enzyme reaction was started by addition of SPECTROFLUOR FIXa (100 μM final concentration). After incubation for 60 minutes at room temperature, the reaction was stopped by the addition of 20% (v/v) acetic acid solution, and then the fluorescence value was measured (Excitation Wavelength: 355 nm, Emission Wavelength; 460 nm) in a microtiter plate reader (ARVO 1420 Multilabel Counter; PerkinElmer).
# The IC50 was calculated from a dilution series of the test substance with the aid of the software, Symyx Assay Explorer (Symyx Technologies, Inc.).
# Chain of human factor IXa (P00740 227-461): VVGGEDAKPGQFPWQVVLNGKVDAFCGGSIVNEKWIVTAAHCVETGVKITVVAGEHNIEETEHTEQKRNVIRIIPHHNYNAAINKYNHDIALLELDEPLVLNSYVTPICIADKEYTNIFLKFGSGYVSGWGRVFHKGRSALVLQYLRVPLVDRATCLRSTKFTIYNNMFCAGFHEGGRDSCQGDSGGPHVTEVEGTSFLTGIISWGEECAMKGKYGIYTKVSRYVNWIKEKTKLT
# Chain of human factor IXa (P00740 47-191 partner): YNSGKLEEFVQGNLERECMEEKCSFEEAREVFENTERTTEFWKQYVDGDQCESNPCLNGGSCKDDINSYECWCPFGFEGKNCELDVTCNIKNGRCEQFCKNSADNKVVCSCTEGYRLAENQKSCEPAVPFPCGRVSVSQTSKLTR
row,SMILES,IC50 [nM]
1,"Cc1cc2c(N)noc2c(N2CC[C@@H](NC(=O)c3ccc(-n4cc(CCO)nn4)cc3Cl)C2)n1 [Example 42, (R)—N-(1-(3-Amino-5-methylisoxazolo[5,4-c]pyridin-7-yl)pyrrolidin-3-yl)-2-chloro-4-(4-(2-hydroxyethyl)-1H-1,2,3-triazol-1-yl)benzamide]",≤ 100
2,"Nc1noc2c(N3CC[C@@H](NC(=O)c4ccc(-n5cnnc5)cc4Cl)C3)ccc(Cl)c12 [Example 9, (R)—N-(1-(3-Amino-4-chlorobenzo[d]isoxazol-7-yl)pyrrolidin-3-yl)-2-chloro-4-(4H-1,2,4-triazol-4-yl)benzamide]",≤ 100
3,"CC1(NC(=O)c2c(Cl)cc(-n3cnnc3)cc2Cl)CCN(c2cccc3c(N)noc23)C1 (centres unmarked) [Example 2, N-(1-(3-Aminobenzo[d]isoxazol-7-yl)-3-methylpyrrolidin-3-yl)-2,6-dichloro-4-(4H-1,2,4-triazol-4-yl)benzamide]",≤ 100
4,"Nc1noc2c(N3CC[C@@H](NC(=O)c4ccc(-c5ccc(=O)n(C(F)F)c5)cc4Cl)C3)ncc(Cl)c12 [Example 37, (R)—N-(1-(3-Amino-4-chloroisoxazolo[5,4-c]pyridin-7-yl)pyrrolidin-3-yl)-2-chloro-4-(1-(difluoromethyl)-6-oxo-1,6-dihydropyridin-3-yl)benzamide]",≤ 100
5,"Nc1noc2c(N3CC[C@@H](NC(=O)c4ccc(-n5cncn5)cc4F)C3)ccc(Cl)c12 [Example 18, (R)—N-(1-(3-Amino-4-chlorobenzo[d]isoxazol-7-yl)pyrrolidin-3-yl)-2-fluoro-4-(1H-1,2,4-triazol-1-yl)benzamide]",100 to 1000
6,"Nc1noc2c(N3CC[C@@H](NC(=O)c4ccc(-n5cc(CCO)cn5)cc4Cl)C3)ccc(Cl)c12 [Example 26, (R)—N-(1-(3-Amino-4-chlorobenzo[d]isoxazol-7-yl)pyrrolidin-3-yl)-2-chloro-4-(4-(2-hydroxyethyl)-1H-pyrazol-1-yl)benzamide]",≤ 100
7,"Nc1noc2c(N3CC[C@@H](NC(=O)c4ccc(-n5cnc(CO)n5)cc4Cl)C3)cc(Cl)cc12 [Example 16, (R)—N-(1-(3-Amino-5-chlorobenzo[d]isoxazol-7-yl)pyrrolidin-3-yl)-2-chloro-4-(3-(hydroxymethyl)-1H-1,2,4-triazol-1-yl)benzamide]",≤ 100
8,"Cc1cc(N2CC[C@@H](NC(=O)c3ccc(-n4cnnc4)cc3Cl)C2)c2onc(N)c2c1Cl [Example 12, (R)—N-(1-(3-Amino-4-chloro-5-methylbenzo[d]isoxazol-7-yl)pyrrolidin-3-yl)-2-chloro-4-(4H-1,2,4-triazol-4-yl)benzamide]",≤ 100
9,"Cn1nc(-c2ccc(C(=O)N[C@@H]3CCN(c4ncc(Cl)c5c(N)noc45)C3)c(Cl)c2)ccc1=O [Example 40, (R)—N-(1-(3-Amino-4-chloroisoxazolo[5,4-c]pyridin-7-yl)pyrrolidin-3-yl)-2-chloro-4-(1-methyl-6-oxo-1,6-dihydropyridazin-3-yl)benzamide]",≤ 100
10,"Nc1noc2c(N3CC[C@@H](NC(=O)c4ccc(-n5cnc6ncncc65)cc4Cl)C3)ncc(Cl)c12 [Example 51, (R)—N-(1-(3-Amino-4-chloroisoxazolo[5,4-c]pyridin-7-yl)pyrrolidin-3-yl)-2-chloro-4-(7H-purin-7-yl)benzamide]",≤ 100
11,"C[C@H]1CN(c2cccc3c(N)noc23)C[C@]1(C)NC(=O)c1c(Cl)cc(-n2cnnc2)cc1Cl (relative stereo) [Example 7, N-((3R*,4S*)-1-(3-Aminobenzo[d]isoxazol-7-yl)-3,4-dimethylpyrrolidin-3-yl)-2,6-dichloro-4-(4H-1,2,4-triazol-4-yl)benzamide]",≤ 100
12,"Nc1noc2c(N3CC[C@@H](NC(=O)c4ccc(-n5cnnc5)cc4Cl)C3)cc(Cl)c(Cl)c12 [Example 14, (R)—N-(1-(3-Amino-4,5-dichlorobenzo[d]isoxazol-7-yl)pyrrolidin-3-yl)-2-chloro-4-(4H-1,2,4-triazol-4-yl)benzamide]",≤ 100
13,"Cc1ncn(-c2ccc(C(=O)N[C@@H]3CCN(c4nc(C#N)cc5c(N)noc45)C3)c(Cl)c2)n1 [Example 41, (R)—N-(1-(3-Amino-5-cyanoisoxazolo[5,4-c]pyridin-7-yl)pyrrolidin-3-yl)-2-chloro-4-(3-methyl-1H-1,2,4-triazol-1-yl)benzamide]",≤ 100

# The remaining lines, values ahead:
row,IC50 [nM],SMILES
1,≤ 100,"Cc1ncn(-c2ccc(C(=O)N[C@@H]3CCN(c4cc(C#N)cc5c(N)noc45)C3)c(Cl)c2)n1 [Example 34, (R)—N-(1-(3-Amino-5-cyanobenzo[d]isoxazol-7-yl)pyrrolidin-3-yl)-2-chloro-4-(3-methyl-1H-1,2,4-triazol-1-yl)benzamide]"
2,≤ 100,"Nc1noc2c(N3CC[C@@H](NC(=O)c4ccc(-c5ccnnc5)cc4Cl)C3)ncc(Cl)c12 [Example 30, (R)—N-(1-(3-Amino-4-chloroisoxazolo[5,4-c]pyridin-7-yl)pyrrolidin-3-yl)-2-chloro-4-(pyridazin-4-yl)benzamide]"
3,≤ 100,"Nc1noc2c(N3CC[C@@H](NC(=O)c4ccc(-c5cnccn5)cc4Cl)C3)ncc(Cl)c12 [Example 33, (R)—N-(1-(3-Amino-4-chloroisoxazolo[5,4-c]pyridin-7-yl)pyrrolidin-3-yl)-2-chloro-4-(pyrazin-2-yl)benzamide]"
4,≤ 100,"COc1ncc(-c2ccc(C(=O)N[C@@H]3CCN(c4ncc(Cl)c5c(N)noc45)C3)c(Cl)c2)cn1 [Example 21, (R)—N-(1-(3-Amino-4-chloroisoxazolo[5,4-c]pyridin-7-yl)pyrrolidin-3-yl)-2-chloro-4-(2-methoxypyrimidin-5-yl)benzamide]"
5,≤ 100,"Cc1cc2c(N)noc2c(N2CC[C@@H](NC(=O)c3c(Cl)cc(-n4cnn(C)c4=O)cc3Cl)C2)n1 [Example 49, (R)—N-(1-(3-Amino-5-methylisoxazolo[5,4-c]pyridin-7-yl)pyrrolidin-3-yl)-2,6-dichloro-4-(1-methyl-5-oxo-1,5-dihydro-4H-1,2,4-triazol-4-yl)benzamide]"
6,≤ 100,"Cn1ncn(-c2ccc(C(=O)N[C@@H]3CCN(c4ncc(Cl)c5c(N)noc45)C3)c(Cl)c2)c1=O [Example 45, (R)—N-(1-(3-Amino-4-chloroisoxazolo[5,4-c]pyridin-7-yl)pyrrolidin-3-yl)-2-chloro-4-(1-methyl-5-oxo-1,5-dihydro-4H-1,2,4-triazol-4-yl)benzamide]"
7,≤ 100,"Nc1noc2c(N3CC[C@@H](NC(=O)c4ccc(-c5ccnc(CO)c5)cc4Cl)C3)ccc(Cl)c12 [Example 53, (R)—N-(1-(3-Amino-4-chlorobenzo[d]isoxazol-7-yl)pyrrolidin-3-yl)-2-chloro-4-(2-(hydroxymethyl)pyridin-4-yl)benzamide]"
8,≤ 100,"Nc1noc2c(N3CCC(NC(=O)c4ccc(-n5cnnc5)cc4Cl)C3)cccc12 (centres unmarked) [Example 1, N-(1-(3-Aminobenzo[d]isoxazol-7-yl)pyrrolidin-3-yl)-2-chloro-4-(4H-1,2,4-triazol-4-yl)benzamide]"
9,≤ 100,"Nc1noc2c(N3CC[C@@H](NC(=O)c4ccc(-c5ccc(=O)n(CC(F)(F)F)c5)cc4Cl)C3)ncc(Cl)c12 [Example 35, (R)—N-(1-(3-Amino-4-chloroisoxazolo[5,4-c]pyridin-7-yl)pyrrolidin-3-yl)-2-chloro-4-(6-oxo-1-(2,2,2-trifluoroethyl)-1,6-dihydropyridin-3-yl)benzamide]"
10,≤ 100,"Nc1noc2c(N3CC[C@@H](NC(=O)c4ccc(-c5cncc(CO)c5)cc4Cl)C3)ccc(Cl)c12 [Example 25, (R)—N-(1-(3-Amino-4-chlorobenzo[d]isoxazol-7-yl)pyrrolidin-3-yl)-2-chloro-4-(5-(hydroxymethyl)pyridin-3-yl)benzamide]"

# From US9969724B2, “Factor IXa inhibitors” (Merck Sharp & Dohme Corp., priority 2014, dated 2018)
